The values below come from PubChem BioAssay (NCI).

Some test systems named below: K-562 leukemia; UO-31 renal; NCI-H226 lung; DLD-1 colon; UACC-62 melanoma; DMS 273 small cell lung; OVCAR-4 ovarian; OVCAR-8 ovarian; LOX IMVI melanoma; T-47D breast.
Holding throughout (assay): NCI tumour cell line growth inhibition, 48 h

Several values for one entry are separate records, joined by “and”; a condition that tells them apart may be missing. Equal values may be shown once.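 Dose response: 5 concentrations. Exposure: 48 h. Format: 96-well plates. Endpoint: linear interpolation; highest concentration if not reached. Abbreviation: GI50, concentration required for 50% inhibition of growth. At the TGI there is no net growth.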 A value given as a limit tells only on which side of the number the result lay.

Take `COC(=O)CCC12CCC(=O)C1[C@@H](C(=O)OC)C[C@H]2C(=O)OC` (some centres undefined): the TGI in the assay on K-562 leukemia, in the assay on UO-31 renal, in the assay with NCI-H226 lung, in the assay on DLD-1 colon, in the assay on UACC-62 melanoma and with DMS 273 small cell lung was above 100 µM throughout. Also, the TGI in the assay on OVCAR-4 ovarian, in the assay with OVCAR-8 ovarian and with LOX IMVI melanoma was above 100 µM throughout.

As for `CN(C)c1nc(=NCc2ccco2)ss1`, the TGI is above 90.8 µM in the assay with K-562 leukemia; 50.1 µM with UO-31 renal; 20.1 µM with T-47D breast; above 91.5 µM in the assay with NCI-H226 lung; 46.1 µM in the assay with DLD-1 colon; above 70.5 µM in the assay on UACC-62 melanoma. The TGI is above 34.6 µM in the assay on DMS 273 small cell lung, 51.7 µM in the assay with OVCAR-4 ovarian, 62.4 µM in the assay on OVCAR-8 ovarian and 38.4 µM with LOX IMVI melanoma.

For the compound `COc1ccc(-c2cc(C(=O)Nc3cc(C(F)(F)F)cc(C(F)(F)F)c3)c3ccccc3n2)cc1`, the TGI in the assay with K-562 leukemia is above 100 µM; with UO-31 renal, above 100 µM; with NCI-H226 lung, 46.9 µM; in the assay with DLD-1 colon it was 43.6 µM; with UACC-62 melanoma, above 100 µM; in the assay on DMS 273 small cell lung it was 21.1 µM. Also, the TGI in the assay with OVCAR-4 ovarian was above 100 µM; in the assay with OVCAR-8 ovarian, 38.9 µM; with LOX IMVI melanoma, 29.1 µM.

Regarding `Clc1cccc(N2CCN(CCCN3CCc4c([nH]c5ccccc45)C3c3cccnc3)CC2)c1` (centres undefined), the GI50 with K-562 leukemia was 5.06 µM; in the assay with DMS 273 small cell lung, 12.6 µM. Moreover, the TGI in the assay on K-562 leukemia is above 100 µM; with UO-31 renal it was 18.5 µM; with NCI-H226 lung, 35.8 µM; in the assay with DLD-1 colon it was 27 µM; in the assay on DMS 273 small cell lung, 27.9 µM; in the assay with OVCAR-4 ovarian, 25.1 µM. For the same compound, the TGI in the assay on OVCAR-8 ovarian worked out at 26 µM; in the assay with LOX IMVI melanoma it was 37.9 µM.

Take `[O-]c1ccccc1C=Nc1ccc2c(c1)CCC2.[O-]c1ccccc1C=Nc1ccc2c(c1)CCC2.[O]=[U+2]=[O]`: the GI50 is 11.8 µM in the assay on K-562 leukemia; 31.2 µM in the assay on UO-31 renal; above 100 µM with NCI-H226 lung; 27.8 µM in the assay with DLD-1 colon; above 100 µM in the assay with UACC-62 melanoma; 14.2 µM in the assay on DMS 273 small cell lung. Further, the GI50 with OVCAR-4 ovarian is above 100 µM; in the assay on OVCAR-8 ovarian, 59.3 µM; in the assay on LOX IMVI melanoma, 9.92 µM. For the same compound, the TGI in the assay on K-562 leukemia, in the assay on UO-31 renal, in the assay on NCI-H226 lung, in the assay on DLD-1 colon, in the assay on UACC-62 melanoma and in the assay with DMS 273 small cell lung was above 100 µM throughout. The TGI with OVCAR-4 ovarian, in the assay on OVCAR-8 ovarian and with LOX IMVI melanoma was above 100 µM each time.

As for `NNc1cnn(-c2ccccc2)c(=O)c1Cl`, the TGI with K-562 leukemia, with UO-31 renal, in the assay on NCI-H226 lung, in the assay with DLD-1 colon, in the assay on UACC-62 melanoma and in the assay on DMS 273 small cell lung was above 100 µM in each case. In addition, the TGI in the assay on OVCAR-4 ovarian, in the assay with OVCAR-8 ovarian and with LOX IMVI melanoma was above 100 µM each time.

Turning to `Cc1c(C(=O)/C=C/C=C/c2ccccc2)[n+](=O)c2ccccc2n1[O-]`, the TGI was above 100 µM in the assay on K-562 leukemia; above 100 µM in the assay with UO-31 renal; above 100 µM with NCI-H226 lung; 29 µM in the assay on DLD-1 colon; 30.2 µM in the assay on UACC-62 melanoma; above 100 µM in the assay with DMS 273 small cell lung. The TGI in the assay with OVCAR-4 ovarian, with OVCAR-8 ovarian and in the assay on LOX IMVI melanoma was above 100 µM throughout.

Turning to `CC(C)(O)/C=C/C(=O)[C@](C)(O)[C@H]1[C@H](O)C[C@@]2(C)[C@@H]3CC=C4[C@@H](C[C@H](O)C(=O)C4(C)C)[C@]3(C)C(=O)C[C@]12C`, the GI50 was 0.0608 µM in the assay on K-562 leukemia; 0.206 µM in the assay with UO-31 renal; 0.174 µM with NCI-H226 lung; 0.119 µM in the assay with DLD-1 colon; 0.0736 µM with UACC-62 melanoma; 0.108 µM with DMS 273 small cell lung. For the same compound, the GI50 in the assay on OVCAR-4 ovarian is 0.161 µM and 0.891 µM; in the assay on LOX IMVI melanoma it was 0.0441 µM. The TGI was 37 µM in the assay on K-562 leukemia; 0.396 µM and 0.519 µM in the assay with UO-31 renal; 0.642 µM and 0.913 µM in the assay on NCI-H226 lung; 8.08 µM in the assay on DLD-1 colon; 0.947 µM and 2.44 µM in the assay on UACC-62 melanoma; 0.543 µM with DMS 273 small cell lung. Further, the TGI in the assay on OVCAR-8 ovarian is 19.9 µM; with LOX IMVI melanoma, 0.198 µM and 0.193 µM.

In the case of `C#CCNC(=O)NCCCCC(NC(=O)OCc1ccccc1)C(=O)OCc1ccccc1` (centres undefined), the TGI in the assay on K-562 leukemia was above 100 µM; in the assay with UO-31 renal, above 72.3 µM; with NCI-H226 lung, above 100 µM; in the assay with DLD-1 colon, above 100 µM; with UACC-62 melanoma, above 100 µM; in the assay with DMS 273 small cell lung it was above 100 µM. Also, the TGI was above 100 µM in the assay on OVCAR-4 ovarian, above 100 µM in the assay on OVCAR-8 ovarian and above 82.2 µM in the assay on LOX IMVI melanoma.

For `O=c1cccccc1NCCCCCCCNc1cccccc1=O`, the TGI was above 100 µM in the assay on K-562 leukemia; 80.3 µM in the assay with UO-31 renal; above 100 µM with NCI-H226 lung; above 100 µM in the assay with DLD-1 colon; 84.5 µM in the assay on UACC-62 melanoma; above 100 µM with DMS 273 small cell lung. The TGI in the assay with OVCAR-4 ovarian, in the assay on OVCAR-8 ovarian and with LOX IMVI melanoma was above 100 µM in each case.

Regarding `CC1=C2C(=CC(C)(C)[C@@H]2O)C(=O)[C@](C)(O)C12CC2`, the GI50 was 0.0145 µM in the assay on K-562 leukemia; 0.0174 µM in the assay with UO-31 renal; 0.0489 µM in the assay with T-47D breast; 0.0709 µM in the assay on NCI-H226 lung; 0.0147 µM in the assay with OVCAR-4 ovarian; 0.0294 µM with OVCAR-8 ovarian. In addition, the GI50 in the assay on LOX IMVI melanoma was 0.0125 µM. The TGI with K-562 leukemia is 0.369 µM and 0.596 µM; in the assay with UO-31 renal, 0.0655 µM and 0.0768 µM; in the assay with T-47D breast, 0.359 µM and 0.0974 µM; with NCI-H226 lung, 0.232 µM and 0.171 µM; in the assay with DLD-1 colon, 0.0825 µM; with UACC-62 melanoma, 0.0623 µM and 0.0678 µM. The TGI in the assay with DMS 273 small cell lung was 0.0189 µM; in the assay on OVCAR-4 ovarian it was 0.201 µM and 0.0458 µM; with OVCAR-8 ovarian, 0.182 µM and 1.29 µM; with LOX IMVI melanoma, 0.0529 µM and 0.0384 µM.

Take `O=c1nc(-c2ccccc2)cc(CC(O)c2ccc(Cl)c(Cl)c2)[nH]1` (centres undefined): the TGI with K-562 leukemia was above 100 µM; in the assay with UO-31 renal it was 99.3 µM; in the assay on NCI-H226 lung, above 100 µM; in the assay with DLD-1 colon it was above 100 µM; with UACC-62 melanoma, above 100 µM; in the assay with DMS 273 small cell lung, above 100 µM. In addition, the TGI in the assay with OVCAR-4 ovarian, in the assay with OVCAR-8 ovarian and with LOX IMVI melanoma was above 100 µM each time.

As to `Cc1ccc(S(=O)(=O)N=NC=C2c3ccccc3N(O)c3ccccc32)cc1`, the TGI in the assay with K-562 leukemia worked out at 13 µM; with UO-31 renal it was 27.1 µM; in the assay on NCI-H226 lung it was 29 µM; with DLD-1 colon it was 8.46 µM; in the assay on UACC-62 melanoma, 18.8 µM; with DMS 273 small cell lung, 15.1 µM. Further, the figures for the TGI in the assay with OVCAR-4 ovarian, in the assay with OVCAR-8 ovarian and with LOX IMVI melanoma were 22.8 µM, 14.7 µM and 2.76 µM, respectively.

Take `CCOC(=O)CN(Cn1cncn1)Cn1cncn1`: the TGI with K-562 leukemia is above 100 µM; in the assay with UO-31 renal, above 100 µM; with NCI-H226 lung, 79.2 µM; with DLD-1 colon it was above 100 µM; in the assay on UACC-62 melanoma, above 100 µM; in the assay on DMS 273 small cell lung it was 39.8 µM. Also, the TGI in the assay on OVCAR-4 ovarian is above 100 µM; in the assay on OVCAR-8 ovarian, 58.8 µM; in the assay with LOX IMVI melanoma, 43.4 µM.

`O=C(C#Cc1ccccc1)N1c2ccccc2CC1c1c[nH]c2ccccc12` (centres undefined): the TGI with K-562 leukemia is 49 µM; with UO-31 renal, above 100 µM; with NCI-H226 lung, 25.8 µM; with DLD-1 colon, 76.7 µM; in the assay on UACC-62 melanoma, 22.8 µM; with DMS 273 small cell lung, 30 µM. The values for the TGI in the assay with OVCAR-4 ovarian, in the assay on OVCAR-8 ovarian and in the assay with LOX IMVI melanoma were 69.6 µM, 27.5 µM and 19.7 µM, respectively.

As to `N/C(=N\NS(=O)(=O)c1ccccc1)Oc1ccc(Br)cc1Br`, the TGI in the assay with K-562 leukemia, with UO-31 renal, with NCI-H226 lung, in the assay with DLD-1 colon, in the assay on UACC-62 melanoma and in the assay on DMS 273 small cell lung was above 100 µM in each case. The TGI with OVCAR-4 ovarian, with OVCAR-8 ovarian and in the assay with LOX IMVI melanoma was above 100 µM each time.

For the compound `CC1(c2cc3c(cc2Br)OCO3)SCCCS1`, the TGI in the assay with K-562 leukemia is above 100 µM; with UO-31 renal it was 85.1 µM; in the assay on NCI-H226 lung it was above 100 µM; in the assay with DLD-1 colon, above 100 µM; in the assay on UACC-62 melanoma, above 100 µM; in the assay with DMS 273 small cell lung, above 100 µM. In addition, the TGI with OVCAR-4 ovarian, in the assay on OVCAR-8 ovarian and with LOX IMVI melanoma was above 100 µM each time.
